Laboratory results as given in US10000451B2, “MAP4K4 (HGK) inhibitors” (SRI INTERNATIONAL, priority 2015, dated 2018).
Read-outs that look alike come from different tables or passages of the source. One block for each compound: values may come before it.

What was measured:
MAP4K4 = MAP4K4 (Homo sapiens, UniProt O95819); test: MAP4K4 kinase assay (in-house); format: biochemical
Excerpt: Signaling pathways mediating anticancer activity. […] We established the MAP4K4 kinase assay in-house and confirmed that the compounds are indeed potent MAP4K4 inhibitors.

A498 = test: Activity against cancer cell lines; format: cell-based; conditions: Homo sapiens
Excerpt: (§1) Exemplary data is shown below.

ACHN = test: Activity against cancer cell lines; format: cell-based; conditions: Homo sapiens
Excerpt: as §1

ADRRES = test: Activity against cancer cell lines; format: cell-based
Excerpt: as §1

CAKI1 = test: Activity against cancer cell lines; format: cell-based; conditions: Homo sapiens, CAKI-1
Excerpt: as §1

HCT15 = test: Activity against cancer cell lines; format: cell-based; conditions: Homo sapiens, HCT-15
Excerpt: as §1

HL60 = test: Activity against cancer cell lines; format: cell-based
Excerpt: as §1

LOXIMVI = test: Activity against cancer cell lines; format: cell-based; conditions: Homo sapiens, LOX IMVI
Excerpt: as §1

M14 = test: Activity against cancer cell lines; format: cell-based; conditions: Homo sapiens
Excerpt: as §1

MCF7 = test: Activity against cancer cell lines; format: cell-based; conditions: Homo sapiens
Excerpt: as §1

MDAMB435 = test: Activity against cancer cell lines; format: cell-based; conditions: Homo sapiens, MDA-MB-435
Excerpt: as §1

MOLT4 = test: Activity against cancer cell lines; format: cell-based; conditions: Homo sapiens, MOLT-4
Excerpt: as §1

NCIH522 = test: Activity against cancer cell lines; format: cell-based; conditions: Homo sapiens, NCI-H522
Excerpt: as §1

OVCAR4 = test: Activity against cancer cell lines; format: cell-based
Excerpt: as §1

OVCAR8 = test: Activity against cancer cell lines; format: cell-based
Excerpt: as §1

RXF393 = test: Activity against cancer cell lines; format: cell-based; conditions: Homo sapiens, RXF 393
Excerpt: as §1

SF295 = test: Activity against cancer cell lines; format: cell-based; conditions: Homo sapiens, SF-295
Excerpt: as §1

SF539 = test: Activity against cancer cell lines; format: cell-based; conditions: Homo sapiens, SF-539
Excerpt: as §1

SKMEL2 = test: Activity against cancer cell lines; format: cell-based; conditions: Homo sapiens, SK-MEL-2
Excerpt: as §1

SKMEL5 = test: Activity against cancer cell lines; format: cell-based; conditions: Homo sapiens, SK-MEL-5
Excerpt: as §1

SNB75 = test: Activity against cancer cell lines; format: cell-based
Excerpt: as §1

UO31 = test: Activity against cancer cell lines; format: cell-based; conditions: Homo sapiens, UO-31
Excerpt: as §1

BT549 = test: Breast cancer cell line growth inhibition; format: cell-based; conditions: Homo sapiens, BT-549; BT549, triple negative; read-out: IC50 against breast cancer cell lines
Excerpt: (§2) Generally, their potency is positively correlated with MAP4K4 expression in cancer cell lines.

HS578T = test: Breast cancer cell line growth inhibition; format: cell-based; conditions: Homo sapiens, Hs-578T, triple negative, read-out: IC50 against breast cancer cell lines
Excerpt: as §2

MCF-7 = test: Breast cancer cell line growth inhibition; format: cell-based; conditions: Homo sapiens, MCF7; MCF-7, ER (+); read-out: IC50 against breast cancer cell lines
Excerpt: as §2

MDA-MB-231 = test: Breast cancer cell line growth inhibition; format: cell-based; conditions: Homo sapiens; MDA-MB-231, triple negative; read-out: IC50 against breast cancer cell lines
Excerpt: as §2

T47D = test: Breast cancer cell line growth inhibition; format: cell-based; conditions: Homo sapiens, ER (+), read-out: IC50 against breast cancer cell lines
Excerpt: as §2

DU-145 = test: Prostate cancer cell proliferation assay; format: cell-based; conditions: Homo sapiens; DU-145, 72 hours; read-out: IC50 against prostate cancer cell lines
Excerpt: (§3) The dose-response curves of cell growth inhibition were consistent.
(§4) Cell proliferation assays.

LNCaP = test: Prostate cancer cell proliferation assay; format: cell-based; conditions: Homo sapiens, 72 hours, read-out: IC50 against prostate cancer cell lines
Excerpt: as §3, §4

PC-3 = test: Prostate cancer cell proliferation assay; format: cell-based; conditions: Homo sapiens; PC-3, 72 hours; read-out: IC50 against prostate cancer cell lines
Excerpt: as §3, §4

[1] = In vivo pharmacokinetic study, oral formulations; conditions: mouse, plasma, 60 mg/kg, mice
Procedure: In vivo pharmacokinetic (PK) studies; oral bioavailability. We conducted pre-formulation studies and selected different oral formulations for mice PK studies to explore the effect of formulation on drug absorption.
The PK profiles of representative compounds (60 mg/kg) were determined in different oral formulations (HPC and PTTW) with groups of three mice per time point.

[2] = Metabolic stability in liver microsomes; format: in vitro ADME; conditions: NADPH, 10 μM
Procedure: The compounds are experimentally predicted to have a longer half-life in humans. We conducted metabolic stability studies in human and mouse liver microsomes. Metabolic stability in pooled human or mouse liver microsomes, in the presence of NADPH, was measured with 10 μM compound over 60 min.

[3] = tested on: caspase-3 and -7 activities; test: Caspase-Glo 3/7 apoptosis assay; format: cell-based; conditions: 20 nM
Excerpt: Efficacy-related endpoints. We conducted an in-depth mechanism of action study in androgen-sensitive (LNCaP) and -insensitive (PC-3 and DU-145) prostate cancer cell lines.
Apoptosis assay. The Caspase-Glo® 3/7 Assay (Promega), a homogeneous, luminescent assay that measures caspase-3 and -7 activities, was used to access apoptosis induction.

CCRFCEM = test: Activity against cancer cell lines; format: cell-based
Excerpt: as §1

MAP4K4, sequence (O95819 whole entry): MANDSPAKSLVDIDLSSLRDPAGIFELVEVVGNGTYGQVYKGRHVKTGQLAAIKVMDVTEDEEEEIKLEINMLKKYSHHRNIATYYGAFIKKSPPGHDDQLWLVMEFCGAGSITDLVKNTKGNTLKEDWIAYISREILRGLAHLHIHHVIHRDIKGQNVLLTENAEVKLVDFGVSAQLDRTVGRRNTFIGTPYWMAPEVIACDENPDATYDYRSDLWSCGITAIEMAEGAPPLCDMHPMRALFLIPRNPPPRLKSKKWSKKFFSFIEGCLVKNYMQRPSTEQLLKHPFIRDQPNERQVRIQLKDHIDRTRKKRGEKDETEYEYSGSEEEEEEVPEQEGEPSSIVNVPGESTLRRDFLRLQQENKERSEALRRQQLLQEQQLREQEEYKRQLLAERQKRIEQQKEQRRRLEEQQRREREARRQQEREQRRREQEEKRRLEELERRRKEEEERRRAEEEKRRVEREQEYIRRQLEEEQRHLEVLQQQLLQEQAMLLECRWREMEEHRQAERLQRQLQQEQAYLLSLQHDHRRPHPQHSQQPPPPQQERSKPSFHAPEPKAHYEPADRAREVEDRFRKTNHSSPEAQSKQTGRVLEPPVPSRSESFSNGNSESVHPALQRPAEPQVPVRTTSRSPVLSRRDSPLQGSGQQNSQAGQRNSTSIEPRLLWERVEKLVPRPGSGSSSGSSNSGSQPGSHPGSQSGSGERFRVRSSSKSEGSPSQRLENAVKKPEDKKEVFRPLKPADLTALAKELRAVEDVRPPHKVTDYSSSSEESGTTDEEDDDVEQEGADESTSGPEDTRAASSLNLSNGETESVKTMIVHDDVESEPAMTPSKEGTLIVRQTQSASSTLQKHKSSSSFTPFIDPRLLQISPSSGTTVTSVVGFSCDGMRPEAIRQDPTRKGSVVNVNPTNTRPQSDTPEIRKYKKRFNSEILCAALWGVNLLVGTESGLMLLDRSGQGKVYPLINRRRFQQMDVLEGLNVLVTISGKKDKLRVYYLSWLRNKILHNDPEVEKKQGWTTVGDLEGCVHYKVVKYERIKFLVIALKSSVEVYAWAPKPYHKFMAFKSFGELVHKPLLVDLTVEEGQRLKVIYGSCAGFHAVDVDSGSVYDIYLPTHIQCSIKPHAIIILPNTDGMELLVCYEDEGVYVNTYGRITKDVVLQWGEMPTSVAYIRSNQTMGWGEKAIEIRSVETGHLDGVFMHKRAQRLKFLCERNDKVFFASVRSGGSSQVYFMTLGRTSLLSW

IC50 (MAP4K4): 160 nM | IC50 (A498): 52 nM | IC50 (ACHN): 5.7 nM | IC50 (ADRRES): 27 nM | IC50 (CAKI1): 23 nM | IC50 (HCT15): 27 nM | IC50 (HL60; HL60): 24 nM | IC50 (HL60; Homo sapiens, HL-60, HL60): 35 nM | IC50 (LOXIMVI): 14 nM | IC50 (M14): 38 nM | IC50 (MCF7): 59 nM | IC50 (MDAMB435): 21 nM | IC50 (MOLT4): 53 nM | IC50 (NCIH522): 32 nM | IC50 (OVCAR4; Homo sapiens, OVCAR-4, OVCAR4): 90 nM | IC50 (OVCAR4; OVCAR4): 56 nM | IC50 (OVCAR8; Homo sapiens, OVCAR-8, OVCAR8): 67 nM | IC50 (OVCAR8; OVCAR8): 53 nM | IC50 (RXF393): 38 nM | IC50 (SF295): 54 nM | IC50 (SF539): 39 nM | IC50 (SKMEL2): 63 nM | IC50 (SKMEL5): 33 nM | IC50 (SNB75; Homo sapiens, SNB-75, SNB75): 42 nM | IC50 (SNB75; SNB75): 34 nM | IC50 (UO31): 66 nM
SMILES: COc1ccc2[nH]c(C(=O)c3ccc4[nH]ccc4c3)cc2c1 [Cmpd 1, (1H-indol-5-yl)(5-methoxy-1H-indol-2-yl)methanone]

IC50 (MAP4K4): 140 nM | IC50 (BT549): 12 nM | IC50 (HS578T): 13 nM | IC50 (MCF-7): 83 nM | IC50 (MDA-MB-231): 14 nM | IC50 (T47D): 29 nM | IC50 (DU-145): 23 nM | IC50 (LNCaP): 16 nM | IC50 (PC-3): 11 nM | concentration at 0.5 h ([1]; oral 60 mg/kg in 0.5% HPC): 319 ± 106 ng/mL | concentration at 4 h ([1]; oral 60 mg/kg in 0.5% HPC): 33 ± 21 ng/mL | concentration at 8 h ([1]; oral 60 mg/kg in 0.5% HPC): 34.7 ± 18.8 ng/mL | concentration at 24 h ([1]; oral 60 mg/kg in 0.5% HPC): 1.3 ± 2.3 ng/mL | concentration at 0.5 h ([1]; oral 60 mg/kg in PTTW): 798 ± 204 ng/mL | concentration at 4 h ([1]; oral 60 mg/kg in PTTW): 75.5 ± 19.3 ng/mL | concentration at 8 h ([1]; oral 60 mg/kg in PTTW): 21.7 ± 11.1 ng/mL | concentration at 24 h ([1]; oral 60 mg/kg in PTTW): 15.4 ± 7.2 ng/mL | % of Parent Compound Remaining vs T = 0 min ([2]; human liver microsomes, 15 min): 72.9% | % of Parent Compound Remaining vs T = 0 min ([2]; human liver microsomes, 30 min): 63.1% | % of Parent Compound Remaining vs T = 0 min ([2]; human liver microsomes, 60 min): 53.0% | % of Parent Compound Remaining vs T = 0 min ([2]; mouse liver microsomes, 15 min): 31.6% | % of Parent Compound Remaining vs T = 0 min ([2]; mouse liver microsomes, 30 min): 9.9% | % of Parent Compound Remaining vs T = 0 min ([2]; mouse liver microsomes, 60 min): 1.0%
SMILES: COc1ccc2[nH]c(C(=O)c3ccc4[nH]nc(C)c4c3)cc2c1 [Cmpd 18, (5-methoxy-1H-indol-2-yl)(3-methyl-1H-indazol-5-yl)methanone]
apoptosis induction ([3]; 24 hours treatment): significantly induced apoptosis | apoptosis induction ([3]; 48 hours treatment): more profound apoptotic effect

IC50 (A498): 650 nM | IC50 (ACHN): 540 nM | IC50 (ADRRES): 11000 nM | IC50 (CAKI1): 180 nM | IC50 (CCRFCEM): 87 nM | IC50 (CCRFCEM; Homo sapiens, CCRF-CEM): 47 nM | IC50 (HCT15): 1300 nM | IC50 (HL60; HL60): 130 nM | IC50 (HL60; Homo sapiens, HL-60, HL60): 150 nM | IC50 (LOXIMVI): 260 nM | IC50 (M14): 810 nM | IC50 (MCF7): 410 nM | IC50 (MDAMB435): 970 nM | IC50 (MOLT4): 75 nM | IC50 (NCIH522): 500 nM | IC50 (OVCAR4; Homo sapiens, OVCAR-4, OVCAR4): 1900 nM | IC50 (OVCAR4; OVCAR4): 1500 nM | IC50 (RXF393): 1000 nM | IC50 (SF295): 430 nM | IC50 (SF539): 390 nM | IC50 (SKMEL2): 680 nM | IC50 (SKMEL5): 390 nM | IC50 (SNB75; Homo sapiens, SNB-75, SNB75): 610 nM | IC50 (SNB75; SNB75): 580 nM | IC50 (UO31): 2500 nM
SMILES: COc1cccc2c1C(=O)c1c(O)c3c(c(O)c1C2=O)C[C@@](O)(C(=O)CO)C[C@@H]3O[C@H]1C[C@H](N)[C@H](O)[C@H](C)O1 [Doxorubicin, reference compound]
